The values that follow come from article PMC9959553, “Promising Antifungal Molecules against Mucormycosis Agents Identified from Pandemic Response Box®: In Vitro and In Silico Analyses” (Journal of Fungi, 2023).

SMILES strings stand for the structures. ≈ marks a conversion by molar mass, not a printed value. Where “and” joins values, the source holds several entries; their conditions need not be identical. Equal values may be shown once.

One series deals with A549 cell line. Also noted: method as in PMID 32560115. The settings on record: cited from earlier work.
In a further series the test system is S. schenckii. Also noted: method as in PMID 36294569. Particulars: cited from earlier work.
Another series concerns Cryptococcus species. Particulars: cited from earlier work.
A short description of series [1]: Cytotoxicity assay (neutral red). The series is classed as cell-based, murine. The settings on record: mouse, RAW 264.7 macrophage cells. How it is done: (§1) Cytotoxicity of alexidine, MMV1580844, MMV642550 and MMV019724 was performed using three cell lineages: RAW 264.7, a murine macrophage culture; A549, adenocarcinomic human alveolar basal epithelial cells; and HaCaT, a spontaneously transformed aneuploid immortal keratinocyte cell line from adult human skin. Cells were grown in DMEM (Dulbecco’s Modified Eagle’s Medium, Sigma-Aldrich, MO, USA), supplemented with 10% fetal bovine serum and incubated for 48 h at 37 °C with 5% CO2 in the presence of serially diluted concentrations (0.3–50 μM) of each compound. Cell viability was measured using the neutral red (NR) assay and quantified using a spectrophotometer at 595 nm (SpectraMax® i3x, Molecular Devices®, San José, CA, USA).

Series [2] relates to R. oryzae preformed biofilm. Put plainly: Preformed biofilm assay. The series is classed as cell-based, Rhizopus oryzae. The settings on record: for Selectivity Index (SI), Preformed Biofilm: R. oryzae, based on biofilm viability parameter. As to the method: (§2) For the preformed biofilm assay, cells were cultured as described above in the absence of the compounds. […] An additional incubation of 24 h at 37 °C was performed to evaluate the anti-biofilm activity. Evaluation of both biofilm formation and preformed biofilms was performed using three parameters as previously described. Crystal violet, safranin and XTT assays were used to analyze the overall biomass, extracellular matrix and metabolic activity, respectively.

Series [3] in a line: Cytotoxicity assay (neutral red). Type of series: cell-based. The settings on record: human. How it is done: as §1
The next series deals with S. brasiliensis. Further details: method as in PMID 36294569. Particulars: cited from earlier work.
The next series has as its system C. auris. The settings on record: cited from earlier work.
For series [4], the system named is R. oryzae, R. microsporus and R. stolonifer. The series is described as follows: Antifungal susceptibility testing, values stated over the three species. The series is classed as cell-based. Particulars: over the three Rhizopus species. How it is done: The susceptibility of the Rhizopus species to MMV396785 (alexidine), MMV1580844, MMV642550 and MMV019724 was determined using the broth microdilution method, according to EUCAST protocols, with modifications. Posaconazole and amphotericin B were also used as reference antifungal drugs because they are commonly used for the treatment of mucormycosis. […] A standardized suspension of conidia (2 × 10^5/mL) was added to the wells and incubated for 48 h at 37 °C, in a 5% CO2 atmosphere. Fungal growth was analyzed via spectrophotometry readings at 600 nm and cell viability was assessed using the XTT reduction assay. Minimum inhibitory concentration (MIC) of each compound was defined as the lowest concentration that inhibits 50% of fungal growth, because these fungi are highly resistant to antifungal drugs and a reduction in half of their growth is relevant. […] MFC values were defined as the lowest drug concentration able to arrest fungal growth.

In series [5] the test system is R. oryzae, R. microsporus and R. stolonifer biofilm formation. The series is described as follows: Biofilm formation assay, stated over the three species. Type of series: cell-based, Rhizopus species. How it is done:
(§3) Biofilm formation assay was performed according to Rollin-Pinheiro and colleagues. Biofilms were grown on the surface of sterile polystyrene microplates (96-well). Briefly, serial dilutions of selected compounds were prepared in RPMI 1640 medium (8–¼× MIC) and deposited in 100 µL aliquots in microplate wells. Subsequently, 100 µL containing 10^5 Rhizopus conidia in RPMI 1640 medium was added to each well and incubated for 48 h at 37 °C.
as §2

Another series has as its system HUVEC. Also noted: method as in PMID 30381356. The settings on record: cited from earlier work.
Another series has as its system R. microsporus biofilm. The series is described as follows: Biofilm formation assay. Type of series: cell-based, Rhizopus microsporus. Particulars: at MIC. As to the method: as §3, §2
The test system of another series is R. stolonifer biofilm. The series is described as follows: Biofilm formation assay. The series is classed as cell-based, Rhizopus stolonifer. As to the method:
as §3, §2

For a further series, the system named is A549 cells. Also noted: method as in PMID 30381356. The settings on record: cited from earlier work.
Another series deals with R. oryzae biofilm. Put plainly: Biofilm formation assay. Particulars: at MIC. Type of series: cell-based, Rhizopus oryzae. As to the method: as §3, §2
The subject of series [6] is Staphylococcus aureus, Balamuthia mandrillaris, C. albicans, C. glabrata and C. auris. Also noted: method as in PMID 23375226, PMID 24568657, PMID 32560115, PMID 22347365. Particulars: for all of the listed species; cited from earlier work.
The mark [7] stands for this setting: A549 alveolar basal epithelial cells, A549, 48 h.

In general, IC50 refers to the concentration at which inhibition is half-maximal. As a reminder, the CC50 is the concentration at which the toxic effect on the cells reaches its halfway point. Higher therefore signals better tolerance by the cells. A word on the MIC: it is the lowest concentration found to suppress growth. For `Oc1c(C(Nc2nc3ccccc3s2)c2ccc(OC(F)F)cc2)ccc2cccnc12` (centres unmarked) [MMV019724], the concentration for half-maximal inhibition (IC50) in the series on A549 cell line was 6.2 µM. Besides, the “concentration that inhibits 50%” value in the series on S. schenckii is recorded as 1 µM; in the series on S. brasiliensis, 0.25 µM. For the same compound, the “concentration able to inhibit 90% of growth” value is given as 5 µM in the series with Cryptococcus species and 2.5 µM with C. auris. Besides, the CC50 at 48 h in [1], in [3] (setting [7]) and in [3] (HaCaT keratinocyte cells) was > 50 µM throughout. Further, the “Selectivity Index (SI), Preformed Biofilm” value in series [2] was >10. The compound also came in with an MIC in series [4] of 0.63 to 1.25 µM (≈ 0.283 to 0.562 µg/mL).

What is called MFC is the lowest tested concentration that kills the fungus rather than only halting it. Read a low MFC as greater fungicidal potency. Regarding `CCCCC(CC)CNC(=N)NC(=N)NCCCCCCNC(=N)NC(=N)NCC(CC)CCCC` (centres unmarked) [MMV396785, Alexidine, reference compound], in [5], the “inhibition of biofilm formation (total biomass, matrix and viability)” value was ~100%. Further, the “concentration that damaged cells” value is 14.7 µg/mL and 28.89 µM in the series with HUVEC; 14.7 µg/mL and 28.89 µM in the series on A549 cells. Besides, the “biofilm biomass, extracellular matrix and viability decreased to” value in the series on R. microsporus biofilm and in the series with R. oryzae biofilm was 25% each time. The “concentration giving reduction in biofilm parameters” value with R. stolonifer biofilm was ≥ 2 × MIC. Besides, the CC50 at 48 h in series [1], in series [3] (setting [7]) and in [3] (HaCaT keratinocyte cells) was > 50 µM each time. Also, the “Selectivity Index (SI), Preformed Biofilm” value in [2] (listed as Alexidina MMV396785) was >20. Further, the “concentration giving significant decrease in biofilm parameters” value in series [2] (preformed biofilm, 24 h treatment) was found to be 2 × MIC. The same compound returned a minimum fungicidal concentration (MFC) in series [4] of 1.25 to 10 µM (≈ 0.636 to 5.09 µg/mL). The minimum inhibitory concentration (MIC) in [4] is 0.63 to 1.25 µM (≈ 0.321 to 0.636 µg/mL).

With `CCc1nc(N)nc(N)c1C#CC(C)c1cc(OC)cc(-c2ccncc2)c1` (centres unmarked) [MMV1580844], the IC50 with A549 cell line is > 10 µM. Moreover, the minimum inhibitory concentration (MIC) entry was “lower than 100 nM” in [6] and 0.08 µM (≈ 0.0299 µg/mL) in series [4]. Further, the CC50 at 48 h in series [1], in [3] (setting [7]) and in series [3] (HaCaT keratinocyte cells) was > 50 µM each time.
